Measured values reported in US6566140B2, “Inhibition of coagulation in blood and blood products” (University of Vermont and State Agriculture College, priority 1998, dated 2003).

What was measured:
[1] = system: tissue factor initiated clotting of platelet poor plasma; assay: plasma clotting assay using CTI (Example 3); type: biochemical, human; conditions: patients on stabilized coumadin therapy
Method: Blood was drawn directly into sterile buffered 3.8% sodium citrate tubes (Vacutainer brand, product # L10318-00, Becton-Dickinson and Co.), and the tubes were centrifuged at 4227 RCF for 3 minutes (Baxter Stat 60 bench top centrifuge). The supernatant was decanted and an automated PT was established for each patient sample. Platelet poor samples were isolated by further centrifugation for 10 minutes at 14,000 rpm, and the top two-thirds of the plasma was transferred to a Sarstedt rectic cup where it was stored for subsequent analysis at −80° C. Prior to thawing, CTI (stock concentration 1-5 mg/mL) was layered onto the frozen sample in an amount sufficient to give a final concentration of 100 μg CTI/mL plasma. Such citrated plasma containing CTI was used within 0-2 hours (stored at 2-8° C.).
Platelet poor plasma collected as described in Example 1 or 2 from either patients or normal donors, was delivered (100 μL) into a 12×75 mm disposable polystryrene tube (VWR Scientific, product #60818-361). Calcium chloride (10 μL, 300 mM CaCl2) was added, followed immediately by an amount of concentrated PSPC (prepared as described above, typical stock concentration ˜1-5 mM in HBS, pH 7.4) so that the final concentration of lipid in the mixture was […]. To initiate the reaction at zero time, 20 μL of stock tissue factor reagent (described below) was added to a final TF concentration of 1 nM. […]

[2] = system: tissue factor initiated clotting of recalcified citrated plasma; assay: extended plasma prothrombin time (XpPT) assay; type: biochemical, human; conditions: for clot time of patient plasma: patients on Coumadin therapy, 0.5 nM TF, 100 μg/ml CTI; for XpPT clot time of patient plasma (s.e.m.): patients on moderate Coumadin therapy, 0.5 nM tissue factor
Method: The result was a standard system of coagulation evaluation in which a plasma sample collected in 11 mM trisodium citrate was frozen (standard pathology laboratory collection system) defrosted in the presence of 100 μgm/ml corn trypsin inhibitor (final concentration) and the assay ultimately conducted described in Materials and Methods section below. The final concentrations in the tissue factor clotting sample included 100 μgm/ml CTI 30 mM CaCl2, 50 μM 75% PC:25PS vesicles and 0.5 nM tissue factor. This system is referred to as the XpPT assay.
To study the effects of heparin, 0-3 U/mL (10,000 u/mL stock) were titrated into normal, CTI (100 μg/mL), citrated plasma. Into reaction cuvettes, […] of plasma, 10 μL of 300 mM CaCl2 (final, 30 mM) and […] of 3.72 mM PCPS (final concentration, 50 μM) were added. Appropriate volumes of heparin (10,000 U/mL) were added to give 0.25, 0.5, 1.0, 1.5, 2.0, and 3.0 U/mL final concentration in 100 μL plasma. The reaction was initiated by adding 10 μL of 5 nM rTF (0.5 nM final concentration).
The assay was used along lines discussed previously except that TFPI was added (50 μg/mL stock) at 5.0, 10.0, 20.0, 60 nM final concentration and initiating with 10 μL of 5.0 nM rTF (0.5 nM).
Citrated platelet poor plasma (PPP) from a normal pool, patient cohorts, or factor V, VII, VIII and IX deficient pools was treated with 3.7 μL of 2.72 mg/mL (100 μg/mL final concentration) corn trypsin inhibitor (CTI) prior to thawing at 37° C. The thawed plasma was spun at 16,000×g (Eppendorf model 5415-C bench top centrifuge) for 10 minutes. Clot times were done by either a manual, tilt-tube method or using a Stago ST-4 detector. (Results were equivalent with each method.) For both methods test tubes made of clear polystyrene or similar clear plastic were used.
Reaction cuvettes for the ST4 clot detector were equilibrated to 37° C. (3 minutes) in the appropriate incubation chambers. Calcium equilibration was started by adding 10 μL of 300 mM CaCl2 (final, 30 mM) to 100 μL of the CTI treated citrated PPP (normal, patient or deficient) for 15 seconds followed by 1.3 μL of 3.72 mM PCPS (25:75 PC/PS) (final concentration, 50 μM) 15 seconds. The reaction was initiated by adding 10 μL of 5.0 nM rTF (final 0.5 nM TF) or 2.5 μL of 0.5 nM rTF (12.5 pM final). End point clot times were determined visually or mechanically on the ST4 using the PTT mode, no incubation, with an upper end timing limit of 999 seconds.

[3] = system: hemophilia C blood; assay: coagulation in hemophilia C (factor XI deficient) whole blood with factor XI replacement; type: cell-based, human; conditions: for clot time: CTI 48 μg/mL
Excerpt: Table 1 below reports the clot times for coagulation in factor XI-deficient blood, deficient blood with replacement and normal whole blood initiated at 25 and 5 pM TF with suppression of contact activation by corn trypsin inhibitor. […] Data are given for each of the experiments described in the text, along with phlebotomy control values i(in parentheses) for clotting in the absence of added tissue factor initiator. […] In all experiments, including controls, factor XIIa activity was suppressed by the addition of corn trypsin inhibitor at the level of 48 μg/mL of blood (see Methods for brief description of the experiments). For the experiments with 25 pM initiator, patient A was the donor; in the 5 pM experiments, the donor was patient B.
The protocol employed is a modification of Rand, M. D., et al. supra performed under the supervision of one of the authors (R. F. B.) at the Clinical Research Center, Fletcher Allen Health Care (Burlington, Vt.). Clotting in freshly drawn, non-anticoagulated whole blood was carried out in 32 capped polystyrene culture tubes as described, except that two series were performed per experiment (16 tubes/series). Reagents were loaded in the following amounts: corn trypsin inhibitor (all tubes, to give 50 μg/mL blood); relipidated TF (lipid:protein=2000) in HBS with 5 mM calcium (all tubes in each series except phlebotomy control tube, to give 25 or 5 pM TF/mL blood); factor VIII or factor XI (all tubes, replacement series only, to give 1 U/mL final); equivalent volume factor VIII/XI dilution buffer (HBS, pH 7.4, all tubes, deficiency series only). No more than 45 μL reagent were loaded in each tube. The zero tube of each series was pre-treated using 1 mL inhibitor cocktail (containing 50 mM EDTA and 20 mM benzamidine-HCl in HBS, pH 7.4), and 10 μL of 10 mM FPRck (diluted in 0.01 M HCl).
Patient or normal donor blood was drawn by venipuncture under a protocol approved by the Human Studies Committee at the University of Vermont, as described Rand, M. D., et al. supra. Clotting was initiated by delivery into the reagent-loaded tubes, and with periodic quenching of the tubes with inhibitor cocktail and FPRck as described above. Two series of quenched samples were obtained following reaction progress up to 20 minutes after initiation; both reducing (1% β-mercaptoethanol) and non-reducing SDS-PAGE samples were prepared from each tube (60 μL supernatant, 190 μL 2% SDS-PAGE sample solution Rand, M. D., et al. supra heated exactly 5 minutes at 98+/−2° C.). An aliquot from each tube was filtered to remove cellular contaminants for ostleonectin assays (200 μL, 0.2 μm AcroDisc, Gelman Sciences, Ann Arbor, Mich.). The remaining serum and cell pellets/clots were aliquotted to screw cap tubes, frozen and stored at −20° C. for immunoblot or immunoassay analysis.
Commercial ELISAs for fibrinopeptide A (FPA), thrombin-antithrombin-III (TAT) and platelet α-granule release (osteonectin) were performed according to manufacturers protocols, with corrections for sample dilution by added quench solution (1.00 mL) and hematocrit (typically 40% of the total blood volume). For analysis of factor Va, samples were separated on SDS-PAGE according to Laemmli, U.K. (1970) Nature 227: 680 as modified by our laboratory Rand, M. D., et al. (1996) supra. Separate gels were run for heavy chain and light chain analysis. Gels were loaded with a pre-stained molecular weight standard mixture (14-200 kDa) and dilute standards (3 samples) allowing comparison and quantitation of analyte amounts horizontally on the immunoblots. Transfer from the gel to nitrocellulose (BioRad, Hercules, Calif.) was performed for 1.5-3 hours via an SDS-free tank transfer procedure as described (Towbin H, et al. (1979) Proc Natl Acad Sci. (USA) 76: 4350 and Gallagher, S. et al. (1993) Current Protocols in Molecular Biology. J. Wiley and Sons. 10.8.1.) with subsequent immunoblot analysis according to Rand, M. D., et al.(1996) supra. […]

[4] = system: factor XI deficient plasma; assay: tissue factor dependence of clotting in factor XI-deficient plasma; type: biochemical, human; conditions: CTI, factor XI 1 U/mL
Method: FIG. 3 is explained as follows: clot time in factor XI deficient plasma (<1%) was measured as a function of tissue factor and […] (as described in Methods). The ordinate is shown in seconds (left-hand axis) and minutes (right-hand axis). Two curves are presented: one for factor XI deficient plasma without factor XI replacement (<1%, filled squares) and a second curve for the same plasma with 1 U/mL factor XI (25 nM, filled circles). To connect the data, smooth curves were drawn which meet near 24 pM TF. The curves become increasingly divergent as tissue factor concentration is reduced to 6 pM TF, where the difference is most pronounced.
Relipidated tissue factor reagent (see above) was rehydrated (200 μl) and diluted with HBS/calcium (2 mM) to obtain a stock reagent containing 552 pM TF and 1.10 μM PCPS. This initial stock was further diluted with PCPS (1. 10 μM) in HBS/calcium (2 mM) to obtain a set of working TF stock concentrations ranging from 17.25 to 552 pM TF at constant lipid concentration. The assay was performed according to the following protocol: Into a polystyrene tube (12×75 mm) was added 200 μL human plasma (XI-deficient, <1% XI:C; or XI-deficient with factor XI replaced at 3.5 μg/mL, 100 U/dL) and 10 μL corn trypsin inhibitor (1.15 mg/mL in HBS). […]

[5] = factor XI replacement, 25 pM TF

In the case of CC(=O)CC(c1ccccc1)c1c(O)c2ccccc2oc1=O (stereo not drawn) [Coumadin], the “clot time of patient plasma” value ([1]; INR of 2.0, normal (INR 1) 60-75 seconds) is reported as 215 to 240 s, the “clot time of patient plasma” value ([1]; INR of 5.0) is reported as 700 to 800 s and the “clot time of patient plasma” value ([2]; INR of 2, normal 82±6s) is reported as 211 ± 8 s. For the same molecule, the “clot time of patient plasma” value ([2]; INR of 4.3) was 616 ± 9 s, the “XpPT clot time of patient plasma (s.e.m.)” value ([2]; INR of 2.0, normal 82.5±0.63 seconds) was 212.6 ± 2.2 s and the “XpPT clot time of patient plasma (s.e.m.)” value ([2]; INR of 4.3) was 610.8 ± 4.2 s.
“factor XI: human factor XI used for replacement at 1 U/mL” was tested, and the clot time ([3]; XI-deficient blood (patient A) with factor XI replacement 1 U/mL, 25 pmol/L TF) was 3.7 min, the “phlebotomy control clot time, −TF” value ([3]; XI-deficient blood (patient A) with factor XI replacement, CTI, no TF) was “(control, −TF > 20.3 min.)” and the clot time ([3]; XI-deficient blood (patient B) with factor XI replacement 1 U/mL, 5 pmol/L TF) was 9.7 min. The “clotting time with factor XI and corn trypsin inhibitor in the absence of TF” value ([3]; factor XI deficient blood) was > 20 min, the FPA formation rate ([3]; factor XI replacement, 5 pM TF) was 7.4 µM/min and the “TAT rate at clot time” value ([3]; factor XI replacement, 5 pM TF) was 119 nM/min. The “final level of TAT” value ([3]; factor XI replacement, 5 pM TF) was 600 nM, the “osteonectin release by clot time” value ([3]; factor XI replacement, 5 pM TF) was 67% and the thrombin generation rate ([3]; factor XI replacement, 5 pM TF) was 119 nmol TAT/L/min. For the same molecule, the “time after clot time to complete fibrinogen conversion” value ([3]; factor XI replacement, 5 pM TF) was 2 to 2.5 min, the “time of maximum factor Va heavy chain” value ([3]; factor XI replacement, 5 pM TF) was ~12 min and the “final TAT concentration” value [3, 5] was 950 nM. For the same molecule, the “maximum rate of FPA release” value [3, 5] was 7.3 µM/min, the “rate of thrombin generation” value [3, 5] was 85 nmol·L/min and the thrombin generation rate [3, 5] was 85 nmol TAT/L/min. The “shortening of clot time by factor XI replacement” value ([3]; hemophilia C blood, 5 pM TF) was 6 min, the “difference in clot time without versus with factor XI” value ([4]; 6 pM TF) was 5.7 min and the “difference in clot time without versus with factor XI” value ([4]; 24 pM TF) was 0.467 min.
